Data: patent US12077503B2, “Substituted cyclic amides and their use as herbicides” (FMC CORPORATION, priority 2015, dated 2024)

Legend:
Assay type in all cases: in vivo
[1] = tested on: Kochia (Kochia scoparia); assay: Test A preemergence; conditions: Bassia scoparia, pre-emergence, 240 h, Preemergence
How it was run: (§1)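 Preemergence soil spray on seeded pots or post-emergence spray on 1–2 leaf plants, in loam–sand blend. Greenhouse ~10 d. Visual rating 0–100 against untreated plants.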

[2] = tested on: barnyardgrass (Echinochloa crus-galli); assay: Test A preemergence; conditions: Echinochloa crus-galli, pre-emergence, 240 h, Preemergence
How it was run: as §1

[3] = tested on: giant foxtail (Setaria faberii); assay: Test A preemergence; conditions: Setaria faberi, pre-emergence, 240 h, Preemergence
How it was run: as §1

[4] = tested on: pigweed (Amaranthus retroflexus); assay: Test A preemergence; conditions: Amaranthus retroflexus, pre-emergence, 240 h, Preemergence
[5] = tested on: ragweed (common ragweed, Ambrosia elatior); assay: Test A preemergence; conditions: Ambrosia artemisiifolia, pre-emergence, 240 h, Preemergence
How it was run: as §1

[6] = tested on: ryegrass, Italian (Italian ryegrass, Lolium multiflorum); assay: Test A preemergence; conditions: Lolium multiflorum, pre-emergence, 240 h, Preemergence
How it was run: as §1

[7] = tested on: Galium (catchweed bedstraw, Galium aparine); assay: Test A postemergence; conditions: Galium, post-emergence, 240 h, Postemergence
How it was run: as §1

[8] = tested on: Kochia (Kochia scoparia); assay: Test A postemergence; conditions: Bassia scoparia, post-emergence, 240 h, Postemergence
How it was run: as §1

[9] = tested on: barnyardgrass (Echinochloa crus-galli); assay: Test A postemergence; conditions: Echinochloa crus-galli, post-emergence, 240 h, Postemergence
How it was run: as §1

[10] = tested on: blackgrass (Alopecurus myosuroides); assay: Test A postemergence; conditions: Alopecurus myosuroides, post-emergence, 240 h, Postemergence
How it was run: as §1

[11] = tested on: corn (Zea mays); assay: Test A postemergence; conditions: Zea mays, post-emergence, 240 h, Postemergence
How it was run: as §1

[12] = tested on: giant foxtail (Setaria faberii); assay: Test A postemergence; conditions: Setaria faberi, post-emergence, 240 h, Postemergence
How it was run: as §1

[13] = tested on: pigweed (Amaranthus retroflexus); assay: Test A postemergence; conditions: Amaranthus retroflexus, post-emergence, 240 h, Postemergence
How it was run: as §1

[14] = tested on: ragweed (common ragweed, Ambrosia elatior); assay: Test A postemergence; conditions: Ambrosia artemisiifolia, post-emergence, 240 h, Postemergence
How it was run: as §1

[15] = tested on: ryegrass, Italian (Italian ryegrass, Lolium multiflorum); assay: Test A postemergence; conditions: Lolium multiflorum, post-emergence, 240 h, Postemergence
How it was run: as §1

[16] = tested on: wheat (Triticum aestivum); assay: Test A postemergence; conditions: Triticum aestivum, post-emergence, 240 h, Postemergence
How it was run: as §1

[17] = tested on: barnyardgrass (Echinochloa crus-galli); assay: Test B flooded paddy test; conditions: Echinochloa crus-galli, 360 h, Flood, 250 g ai/ha; visually evaluated after 13 to 15 d; read-out: Plant response rating, Barnyardgrass (0 to 100 scale where 0 is no effect and 100 is complete control)
How it was run: (§2)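 Percent control, visually estimated after 13–15 d in the greenhouse on a 0–100 basis, compares treated pots with untreated ones; compound was put into paddy water 3 cm above the soil when plants had two leaves.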

[18] = tested on: ducksalad (Heteranthera limosa); assay: Test B flooded paddy test; conditions: Heteranthera limosa, 360 h, Flood, 250 g ai/ha; visually evaluated after 13 to 15 d; read-out: Plant response rating, Ducksalad (0 to 100 scale where 0 is no effect and 100 is complete control)
How it was run: as §2

[19] = tested on: rice (Oryra sativa); assay: Test B flooded paddy test; conditions: Oryza sativa, 360 h, Flood, 250 g ai/ha; visually evaluated after 13 to 15 d; read-out: Plant response rating, Rice (0 to 100 scale where 0 is no effect and 100 is complete control)
How it was run: as §2

[20] = tested on: sedge, umbrella (small-flower umbrella sedge, Cyperus difformis); assay: Test B flooded paddy test; conditions: Cyperus difformis, 360 h, Flood, 250 g ai/ha; visually evaluated after 13 to 15 d; read-out: Plant response rating, Sedge, Umbrella (0 to 100 scale where 0 is no effect and 100 is complete control)
How it was run: as §2

Work on `Cc1ccc([C@H]2CN(C)C(=O)[C@@H]2C(=O)Nc2cccnc2F)cc1` [Compound 1398] yielded a pest or weed control at 31 g/ha ([1]; 31 g ai/ha, 0 to 100 scale where 0 is no effect and 100 is complete control, read-out: Kochia plant response rating) of 100%, a pest or weed control at 125 g/ha ([1]; 125 g ai/ha, 0 to 100 scale (0 no effect, 100 complete control), read-out: Plant response rating, Kochia) of 90% and a pest or weed control at 31 g/ha ([2]; 31 g ai/ha, 0 to 100 scale where 0 is no effect and 100 is complete control, read-out: Barnyardgrass plant response rating) of 100%. The pest or weed control at 125 g/ha ([2]; 125 g ai/ha, 0 to 100 scale (0 no effect, 100 complete control), read-out: Plant response rating, Barnyardgrass) was 100%, the pest or weed control at 31 g/ha ([3]; 31 g ai/ha, 0 to 100 scale where 0 is no effect and 100 is complete control, read-out: Foxtail, Giant plant response rating) was 100% and the pest or weed control at 125 g/ha ([3]; 125 g ai/ha, 0 to 100 scale (0 no effect, 100 complete control), read-out: Plant response rating, Foxtail, Giant) was 100%. The pest or weed control at 31 g/ha ([4]; 31 g ai/ha, 0 to 100 scale where 0 is no effect and 100 is complete control, read-out: Pigweed plant response rating) was 0%, the pest or weed control at 125 g/ha ([4]; 125 g ai/ha, 0 to 100 scale (0 no effect, 100 complete control), read-out: Plant response rating, Pigweed) was 50% and the pest or weed control at 31 g/ha ([5]; 31 g ai/ha, 0 to 100 scale where 0 is no effect and 100 is complete control, read-out: Ragweed plant response rating) was 50%. For the same compound, the pest or weed control at 125 g/ha ([5]; 125 g ai/ha, 0 to 100 scale (0 no effect, 100 complete control), read-out: Plant response rating, Ragweed) was 90%, the pest or weed control at 31 g/ha ([6]; 31 g ai/ha, 0 to 100 scale where 0 is no effect and 100 is complete control, read-out: Ryegrass, Italian plant response rating) was 0% and the pest or weed control at 125 g/ha ([6]; 125 g ai/ha, 0 to 100 scale (0 no effect, 100 complete control), read-out: Plant response rating, Ryegrass, Italian) was 70%. It also gave a pest or weed control at 31 g/ha ([7]; 31 g ai/ha, 0 is no effect, 100 is complete control, read-out: Galium plant response rating (0 to 100 scale)) of 30%, a pest or weed control at 125 g/ha ([7]; 125 g ai/ha, visual injury after approx. 10 d, 0 to 100 scale, 0 no effect, 100 complete control, read-out: Plant response rating, Galium) of 50% and a pest or weed control at 31 g/ha ([8]; 31 g ai/ha, 0 is no effect, 100 is complete control, read-out: Kochia plant response rating (0 to 100 scale)) of 20%. For the same compound, the pest or weed control at 125 g/ha ([8]; 125 g ai/ha, visual injury after approx. 10 d, 0 to 100 scale, 0 no effect, 100 complete control, read-out: Plant response rating, Kochia) was 60%, the pest or weed control at 31 g/ha ([9]; 31 g ai/ha, 0 is no effect, 100 is complete control, read-out: Barnyardgrass plant response rating (0 to 100 scale)) was 90% and the pest or weed control at 125 g/ha ([9]; 125 g ai/ha, visual injury after approx. 10 d, 0 to 100 scale, 0 no effect, 100 complete control, read-out: Plant response rating, Barnyardgrass) was 100%. The pest or weed control at 31 g/ha ([10]; 31 g ai/ha, 0 is no effect, 100 is complete control, read-out: Blackgrass plant response rating (0 to 100 scale)) was 20%, the pest or weed control at 125 g/ha ([10]; 125 g ai/ha, visual injury after approx. 10 d, 0 to 100 scale, 0 no effect, 100 complete control, read-out: Plant response rating, Blackgrass) was 60% and the plant injury at 31 g/ha ([11]; 31 g ai/ha, 0 is no effect, 100 is complete control, read-out: Corn plant response rating (0 to 100 scale)) was 0%. The Corn plant response rating (crop injury, 0 = no effect, 100 = complete kill) at 125 g/ha ([11]; 125 g ai/ha, visual injury after approx. 10 d, 0 to 100 scale, 0 no effect, 100 complete control) was 40%, the pest or weed control at 31 g/ha ([12]; 31 g ai/ha, 0 is no effect, 100 is complete control, read-out: Foxtail, Giant plant response rating (0 to 100 scale)) was 90% and the pest or weed control at 125 g/ha ([12]; 125 g ai/ha, visual injury after approx. 10 d, 0 to 100 scale, 0 no effect, 100 complete control, read-out: Plant response rating, Foxtail, Giant) was 90%. It also gave a pest or weed control at 31 g/ha ([13]; 31 g ai/ha, 0 is no effect, 100 is complete control, read-out: Pigweed plant response rating (0 to 100 scale)) of 0%, a pest or weed control at 125 g/ha ([13]; 125 g ai/ha, visual injury after approx. 10 d, 0 to 100 scale, 0 no effect, 100 complete control, read-out: Plant response rating, Pigweed) of 0% and a pest or weed control at 31 g/ha ([14]; 31 g ai/ha, 0 is no effect, 100 is complete control, read-out: Ragweed plant response rating (0 to 100 scale)) of 0%. It also gave a pest or weed control at 125 g/ha ([14]; 125 g ai/ha, visual injury after approx. 10 d, 0 to 100 scale, 0 no effect, 100 complete control, read-out: Plant response rating, Ragweed) of 30%, a pest or weed control at 31 g/ha ([15]; 31 g ai/ha, 0 is no effect, 100 is complete control, read-out: Ryegrass, Italian plant response rating (0 to 100 scale)) of 0% and a pest or weed control at 125 g/ha ([15]; 125 g ai/ha, visual injury after approx. 10 d, 0 to 100 scale, 0 no effect, 100 complete control, read-out: Plant response rating, Ryegrass, Italian) of 40%. The plant injury at 31 g/ha ([16]; 31 g ai/ha, 0 is no effect, 100 is complete control, read-out: Wheat plant response rating (0 to 100 scale)) was 0%, the plant injury at 125 g/ha ([16]; 125 g ai/ha, visual injury after approx. 10 d, 0 to 100 scale, 0 no effect, 100 complete control, read-out: Plant response rating, Wheat) was 60% and the pest or weed control at 250 g/ha [17] was 80%. For the same compound, the pest or weed control at 250 g/ha [18] was 100%, the pest or weed control at 250 g/ha [19] was 15% and the pest or weed control at 250 g/ha [20] was 0%.
